Reference: patent US20080102497A1, “ENZYMATIC HYDROLYSIS OF STARCH” (priority 2006, published 2008)
Several values for one entry are separate records, joined by “and”; a condition that tells them apart may be missing. Equal values may be shown once. Read-outs that look alike come from different tables or passages of the source.

Key:
[1] = biological target: α-amylase from Bacillus licheniformis (Bacillus licheniformis, UniProt P06278); test: hydrolysis of cooked dent corn starch with other additives; assay type: biochemical; settings: for effect on rate of enzymatic hydrolysis (in words): 10 mM additive, cooked dent corn starch; for Relative Activity: cooked dent corn starch 0.5%, pH 5.2, 37° C., 10 min
Chain of α-amylase from Bacillus licheniformis (P06278 30-512): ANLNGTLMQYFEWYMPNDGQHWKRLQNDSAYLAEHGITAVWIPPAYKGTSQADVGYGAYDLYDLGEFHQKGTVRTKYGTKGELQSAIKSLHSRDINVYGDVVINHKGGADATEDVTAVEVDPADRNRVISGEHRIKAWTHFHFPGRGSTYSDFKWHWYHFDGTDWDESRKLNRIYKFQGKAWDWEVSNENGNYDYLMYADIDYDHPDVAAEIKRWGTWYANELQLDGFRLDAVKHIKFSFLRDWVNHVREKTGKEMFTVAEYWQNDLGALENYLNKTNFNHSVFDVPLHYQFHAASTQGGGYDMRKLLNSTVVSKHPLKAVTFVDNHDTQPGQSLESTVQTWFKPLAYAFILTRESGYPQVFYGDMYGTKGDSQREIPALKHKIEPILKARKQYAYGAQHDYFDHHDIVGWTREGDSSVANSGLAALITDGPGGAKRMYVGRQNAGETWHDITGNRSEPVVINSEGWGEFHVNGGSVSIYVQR
Procedure: The α-amylase from Bacillus licheniformis was added to a sodium acetate buffer solution, pH 5.2, […], di-sodium EDTA, NH4^+, Sr^++, Na^+, K^+, Al^+++, or Ba^++ and 0.5% by weight cooked dent corn starch. The separate reaction mixtures were incubated at 37° C. for 10 minutes. The control reaction mixture contained enzyme, buffer, and starch but no additive. The starch hydrolysis reaction was stopped by combining the reaction mixture with a solution containing DNSA and heating for 30 min at 85° C. The absorbance of the control and test samples was measured at 562 nm to monitor the amount of reducing sugar in each sample.

[2] = biological target: glucoamylase from Aspergillus Niger (Aspergillus niger, UniProt P69328); test: as above; assay type: biochemical; settings: for effect on rate of enzymatic hydrolysis (in words): 10 mM additive, cooked dent corn starch; for Relative Activity: cooked dent corn starch 0.5%, pH 5.2, 37° C., 10 min
Chain of glucoamylase from Aspergillus Niger (P69328 25-640): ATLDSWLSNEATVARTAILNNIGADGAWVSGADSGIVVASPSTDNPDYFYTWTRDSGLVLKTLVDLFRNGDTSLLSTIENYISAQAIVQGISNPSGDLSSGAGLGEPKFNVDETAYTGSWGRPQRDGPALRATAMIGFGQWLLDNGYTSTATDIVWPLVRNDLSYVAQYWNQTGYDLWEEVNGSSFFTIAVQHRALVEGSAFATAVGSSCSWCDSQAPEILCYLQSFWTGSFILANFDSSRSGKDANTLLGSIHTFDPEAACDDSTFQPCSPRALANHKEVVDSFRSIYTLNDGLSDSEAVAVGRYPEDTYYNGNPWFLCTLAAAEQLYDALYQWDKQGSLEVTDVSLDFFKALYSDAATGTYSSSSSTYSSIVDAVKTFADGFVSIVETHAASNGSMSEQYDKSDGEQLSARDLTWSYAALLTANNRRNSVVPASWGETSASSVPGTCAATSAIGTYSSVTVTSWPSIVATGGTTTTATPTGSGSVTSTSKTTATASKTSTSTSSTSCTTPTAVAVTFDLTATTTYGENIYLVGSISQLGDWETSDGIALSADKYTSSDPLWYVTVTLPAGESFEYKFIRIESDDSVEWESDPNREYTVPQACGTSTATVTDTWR
Procedure: The glucoamylase from Aspergillus Niger was added to a sodium acetate buffer solution, pH 5.2, comprising no metal or 10 mM Fe^++, Mg^++, Li^+, Zn^++, Cu^++, Ca^++, di-sodium EDTA, NH4^+, Sr^++, Na^+, K^+, Al^+++, or Ba^++ and 0.5% by weight cooked dent corn starch. The separate reaction mixtures were incubated at 37° C. for 10 minutes. The control reaction mixture contained enzyme, buffer, and starch but no additive. The starch hydrolysis reaction was stopped by combining the reaction mixture with a solution containing DNSA and heating for 30 min at 85° C. The absorbance of the control and test samples was measured at 562 nm to monitor the amount of reducing sugar in each sample.

β-amylase from barley = β-amylase from barley (Hordeum vulgare, UniProt P16098); test: as above; assay type: biochemical; settings: for effect on rate of enzymatic hydrolysis (in words): 10 mM additive, cooked dent corn starch; for Relative Activity: cooked dent corn starch 0.5%, pH 5.2, 37° C., 10 min
Chain of β-amylase from barley (P16098 whole entry): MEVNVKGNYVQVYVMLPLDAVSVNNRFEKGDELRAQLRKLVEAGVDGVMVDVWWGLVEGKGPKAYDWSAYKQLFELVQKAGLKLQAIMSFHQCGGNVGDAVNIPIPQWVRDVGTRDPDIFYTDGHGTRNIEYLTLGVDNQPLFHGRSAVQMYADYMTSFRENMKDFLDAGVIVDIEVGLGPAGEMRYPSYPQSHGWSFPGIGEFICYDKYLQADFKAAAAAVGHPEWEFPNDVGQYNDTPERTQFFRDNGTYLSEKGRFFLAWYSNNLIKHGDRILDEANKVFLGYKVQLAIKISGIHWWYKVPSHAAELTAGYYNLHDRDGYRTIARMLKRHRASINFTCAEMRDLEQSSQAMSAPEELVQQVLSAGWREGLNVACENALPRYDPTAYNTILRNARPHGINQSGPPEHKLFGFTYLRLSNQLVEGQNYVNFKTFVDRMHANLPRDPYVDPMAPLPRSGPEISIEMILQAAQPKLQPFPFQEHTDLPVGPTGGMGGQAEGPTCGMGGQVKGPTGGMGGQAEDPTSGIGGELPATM
Procedure: […] The separate reaction mixtures were incubated at 37° C. for 10 minutes. The control reaction mixture contained enzyme, buffer, and starch but no additive. The starch hydrolysis reaction was stopped by combining the reaction mixture with a solution containing DNSA and heating for 30 min at 85° C. The absorbance of the control and test samples was measured at […] to monitor the amount of reducing sugar in each sample.

[3] = test system: glucoamylase from Rhizopus sp.; settings: 1.0 mM manganese salt, raw corn starch, pH 5.3, 37° C.
Procedure: An enzyme solution of the glucoamylase from Rhizopus sp. Was prepared in a sodium acetate buffer, pH 5.3, comprising 1.0 mM manganese chloride, manganese acetate, or manganese sulfate. Thereafter, 40 μl of each enzyme solution was added to 15 mg raw corn starch and the reaction mixtures incubated at 37° C. for 5, 10, 15, 20, or 25 minutes. The starch hydrolysis reaction was stopped by combining the reaction mixture with a solution containing DNSA and heating for 30 min at 85° C. The absorbance of the control and test samples was measured at 562 nm to monitor the amount of reducing sugar in each sample.

[4] = test system: enzyme mixture of purified glucoamylase from mushroom and purified α-amylase from barley; test: hydrolysis of raw corn starch by enzyme mixture, reducing sugar by DNSA; assay type: biochemical; settings: for Relative Activity: 10 mM additive, raw corn starch, pH 5.3, 37° C., 20 min; for effect on hydrolysis of raw corn starch (in words): summary of Table 2
Procedure: Enzyme mixture was also pre-incubated with 10 mM Fe^++, Cu^++, Ca^++, Mg^++, or disodium ethylenediamine-tetraacetic acid (EDTA). Thereafter, 40 μl of each pre-incubation solution was added to 15 mg raw corn starch, and the reaction mixture incubated at 37° C. for 20 minutes. The control reaction mixture contained substrate, enzyme, and buffer but no additional metal ions. The starch hydrolysis reaction was stopped by combining the reaction mixture with a solution containing 3,5 dinitrosalicylic acid (DNSA) and heating for 30 min at 85° C. The absorbance of the control and test samples was measured at 562 nm to monitor the amount of reducing sugar in each sample.

Compound	effect on rate of enzymatic hydrolysis (in words) [1]	Relative Activity ([1]; Additive (10 mM))	effect on rate of enzymatic hydrolysis (in words) [2]	Relative Activity ([2]; Additive (10 mM))	effect on rate of enzymatic hydrolysis (in words) (β-amylase from barley)	Relative Activity (β-amylase from barley; Additive (10 mM))	% Conversion ([3]; 5 minutes) [%]	% Conversion ([3]; 10 minutes) [%]	% Conversion ([3]; 15 minutes) [%]	% Conversion ([3]; 20 minutes) [%]	% Conversion ([3]; 25 minutes) [%]	% Conversion ([3]; time 0) [%]	Relative Activity ([1]; additive 1 mM) [%]	Relative Activity [4] [%]	effect on hydrolysis of raw corn starch (in words) [4]	Relative Activity ([2]; additive 1 mM) [%]	Relative Activity (β-amylase from barley; additive 1 mM)
[K+] [K^+, potassium ion]	does not increase the enzymatic rate of hydrolysis	82.8%	increase the rate of enzymatic hydrolysis	113.3%	do not significantly increase the rate of enzymatic hydrolysis	101.1%											
N [NH4^+]	does not increase the enzymatic rate of hydrolysis	86.4%	do not significantly increase the rate of enzymatic hydrolysis	98.3%	do not significantly increase the rate of enzymatic hydrolysis	95.1%											
O=S(=O)([O-])[O-].[Mn+2] [MnSO4, manganese sulfate]							0.50	0.87	1.12	1.30	1.58	0					
[Al+3] [Al^+++]	does not increase the enzymatic rate of hydrolysis	95.1%	do not significantly increase the rate of enzymatic hydrolysis	96.2%	do not significantly increase the rate of enzymatic hydrolysis	77.5%											
[Ca+2] [Ca^++, calcium ions]		119.1% and 94.8% and 99.4% and 90.0%	increase the rate of enzymatic hydrolysis	103.8% and 104.4% and 97.4%	increase the rate of enzymatic hydrolysis	114.1% and 127.2% and 121.2%							83.6	97.3	do not have a similar effect	108.0	111.8% and 105.8% and 105.0%
manganese chloride [MnCl2]							0.44	0.74	1.01	1.22	1.70	0					
O=C(O)CN(CCN(CC(=O)O)CC(=O)O)CC(=O)O.[Na].[Na] [Disodium EDTA, disodium ethylenediamine-tetraacetic acid]	does not increase the enzymatic rate of hydrolysis	103.8%	do not significantly increase the rate of enzymatic hydrolysis	57.6%	do not significantly increase the rate of enzymatic hydrolysis	100.4%								88.8	do not have a similar effect		
manganese acetate [MnOAc]							0.46	0.74	1.04	1.28	1.50	0					
[Na+] [Na^+]	does not increase the enzymatic rate of hydrolysis	84.2%	do not significantly increase the rate of enzymatic hydrolysis	97.3%	do not significantly increase the rate of enzymatic hydrolysis	95.1%											
[Fe+2] [Fe^++]	does not increase the enzymatic rate of hydrolysis	101.9%	do not significantly increase the rate of enzymatic hydrolysis	98.3%	do not significantly increase the rate of enzymatic hydrolysis	88.7%								74.0	do not have a similar effect		
[Sr+2] [Sr^++, strontium ion]	does not increase the enzymatic rate of hydrolysis	87.2%	do not significantly increase the rate of enzymatic hydrolysis	93.8%	increase the rate of enzymatic hydrolysis	114.1%											
[Li+] [Li^+, lithium ion]	does not increase the enzymatic rate of hydrolysis	89.2%	increase the rate of enzymatic hydrolysis	118.1%	do not significantly increase the rate of enzymatic hydrolysis	101.6%											
[Zn+2] [Zn^++]	does not increase the enzymatic rate of hydrolysis	100.2%	do not significantly increase the rate of enzymatic hydrolysis	57.3%	do not significantly increase the rate of enzymatic hydrolysis	70.6%											
[Ba+2] [Ba^++, barium ion]	does not increase the enzymatic rate of hydrolysis	98.1%	do not significantly increase the rate of enzymatic hydrolysis	99.3%	increase the rate of enzymatic hydrolysis	114.6%											
